Experimental data from patent US10456407B2, “Combination therapy for treating cancer” (Epizyme, Inc., priority 2015, dated 2019).

Columns and labels:
Type in all cases: cell-based
RL cells = assay: RT2 Glucocorticoid signaling PCR array, RL (Table 4e, printed RI) cell line; conditions: 4 days, Cpd44 1 uM, Pred 10-fold below 4-day IC50, vs DMSO, B2M-normalized
SU-DHL10 cells = assay: RT2 Glucocorticoid signaling PCR array, SU-DHL10 (SUDHL10) cell line (Table 4d); conditions: SUDHL10, 4 days, vs DMSO
SMARCB1 protein levels = assay: SMARCB1 (INI1) western blot in lymphoma cells; conditions: single agent treatment
Description: Glucocorticoid bound GR molecules move to the nucleus and can act as either transcriptional activator or repressor, depending on the cellular environment. […] Accessibility to GR binding sites can further be enhanced by ATP-dependent chromatin remodeling, and the SWI/SNF complex plays a key role in this activity. Not wishing to be bound by a particular theory or a specific mechanism of action, it is conceivable that aberrant chromatin repression, induced by EZH2 mediated hypertrimethylation of H3K27, can block some of the otherwise accessible GR binding sites, interfering with normal GR mediated gene induction or repression.

SU-DHL4 cells = assay: RT2 Glucocorticoid signaling PCR array, SU-DHL4 (SUDHL4) cell line (Table 4f); conditions: SUDHL4, 4 days, vs DMSO

## C[C@]12C=CC(=O)C=C1CC[C@@H]1[C@@H]2[C@@H](O)C[C@@]2(C)[C@H]1CC[C@]2(O)C(=O)CO [Prednisolone, prednisolone]
RL cells; ADARB1 mRNA
  ΔΔCT: 0.413
RL cells; AFF1 mRNA
  ΔΔCT: −1.390
RL cells; AK2 mRNA
  ΔΔCT: 0.686
RL cells; AMPD3 mRNA
  ΔΔCT: −0.544
RL cells; ANGPTL4 mRNA
  ΔΔCT: 1.668
RL cells; ANXA4 mRNA
  ΔΔCT: 0.131
RL cells; ARID68 mRNA
  ΔΔCT: 0.833
RL cells; ASPH mRNA
  ΔΔCT: 0.771
RL cells; BCL6 mRNA
  ΔΔCT: 0.937
RL cells; CEBPB mRNA
  ΔΔCT: 2.638
RL cells; CREB1 mRNA
  ΔΔCT: 0.483
RL cells; CREB3L4 mRNA
  ΔΔCT: 0.129
RL cells; DDIT4 mRNA
  ΔΔCT: 1.431
RL cells; DUSP1 mRNA
  ΔΔCT: −0.153
RL cells; EDN1 mRNA
  ΔΔCT: 6.595
RL cells; EHD3 mRNA
  ΔΔCT: 0.055
RL cells; FK8PS mRNA
  ΔΔCT: −0.333
RL cells; FOSL2 mRNA
  ΔΔCT: 2.300
RL cells; GDPD1 mRNA
  ΔΔCT: 0.711
RL cells; GLUL mRNA
  ΔΔCT: 1.007
RL cells; GOT1 mRNA
  ΔΔCT: 1.467
RL cells; H6PD mRNA
  ΔΔCT: 0.935
RL cells; HNRPLL mRNA
  ΔΔCT: 0.789
RL cells; IL1RN mRNA
  ΔΔCT: −0.808
RL cells; IL6R mRNA
  ΔΔCT: 0.885
RL cells; IL10 mRNA
  ΔΔCT: −0.083
RL cells; KLF13 mRNA
  ΔΔCT: 0.346
RL cells; LOX mRNA
  ΔΔCT: −0.132
RL cells; MT2A mRNA
  ΔΔCT: 1.656
RL cells; NFKBIA mRNA
  ΔΔCT: 0.853
RL cells; NR3C1 mRNA
  ΔΔCT: 0.952
RL cells; PDCD7 mRNA
  ΔΔCT: 0.394
RL cells; PDP1 mRNA
  ΔΔCT: 0.742
RL cells; PER1 mRNA
  ΔΔCT: 2.230
RL cells; PER2 mRNA
  ΔΔCT: 0.250
RL cells; PLEKHF1 mRNA
  ΔΔCT: 1.075
RL cells; POU2F2 mRNA
  ΔΔCT: 0.797
RL cells; RA5A3 mRNA
  ΔΔCT: 1.543
RL cells; RGS2 mRNA
  ΔΔCT: 0.772
RL cells; SGK1 mRNA
  ΔΔCT: 0.848
RL cells; SLC10A6 mRNA
  ΔΔCT: −1.725
RL cells; SNTA1 mRNA
  ΔΔCT: 1.144
RL cells; SPHK1 mRNA
  ΔΔCT: 2.618
RL cells; SPSB1 mRNA
  ΔΔCT: 2.005
RL cells; STAT5A mRNA
  ΔΔCT: 0.789
RL cells; STAT5B mRNA
  ΔΔCT: 0.512
RL cells; TBL1XR1 mRNA
  ΔΔCT: 0.794
RL cells; TNF mRNA
  ΔΔCT: −0.598
RL cells; TNFAIP3 mRNA
  ΔΔCT: 1.561
RL cells; TSC22D3 mRNA
  ΔΔCT: −1.431
RL cells; USP2 mRNA
  ΔΔCT: −0.661
RL cells; USPS4 mRNA
  ΔΔCT: 0.491
RL cells; VDR mRNA
  ΔΔCT: 1.247
RL cells; VLDLR mRNA
  ΔΔCT: −1.862
RL cells; ZFP36 mRNA
  ΔΔCT: 0.925
RL cells; ZNF281 mRNA
  ΔΔCT: 0.371
SU-DHL10 cells
  AFF1 ΔΔCT: −0.106
  AMPD3 ΔΔCT: −0.327
  ANGPTL4 ΔΔCT: −0.105
  ANXA4 ΔΔCT: −0.001
  ATF4 ΔΔCT: 1.570
  BCL6 ΔΔCT: 1.067
  CEBPB ΔΔCT: 2.427
  CREB1 ΔΔCT: 0.028
  CREB3L4 ΔΔCT: 1.120
  CREB3 ΔΔCT: −0.098
  CYB561 ΔΔCT: 0.164
  DUSP1 ΔΔCT: −0.719
  EHD3 ΔΔCT: −0.272
  FK8PS ΔΔCT: −1.599
  FOSL2 ΔΔCT: −1.511
  GDPD1 ΔΔCT: −0.938
  GOT1 ΔΔCT: 0.781
  HNRPLL ΔΔCT: 0.492
  KLF9 ΔΔCT: −1.904
  KLF13 ΔΔCT: −2.191
  MT2A ΔΔCT: 1.837
  NFKBIA ΔΔCT: 0.069
  PDCD7 ΔΔCT: 0.428
  PDP1 ΔΔCT: 0.512
  PER1 ΔΔCT: −0.675
  PIK3R1 ΔΔCT: −0.040
  PLEKHF1 ΔΔCT: −0.326
  POU2F1 ΔΔCT: −0.060
  POU2F2 ΔΔCT: −2.104
  RA5A3 ΔΔCT: 0.050
  RGS2 ΔΔCT: 1.368
  RHOB ΔΔCT: 0.157
  SESN1 ΔΔCT: −3.413
  SGK1 ΔΔCT: 0.975
  SLC10A6 ΔΔCT: −1.545
  SLC19A2 ΔΔCT: 1.693
  SLC22A5 ΔΔCT: 1.923
  SNTA1 ΔΔCT: −0.066
  SPSB1 ΔΔCT: −0.629
  STAT5A ΔΔCT: 0.381
  TBL1XR1 ΔΔCT: 0.105
  TNFAIP3 ΔΔCT: 0.950
  TSC22D3 ΔΔCT: −1.509
  USP2 ΔΔCT: −0.292
  USPS4 ΔΔCT: 0.041
  VLDLR ΔΔCT: 4.597
  ZFP36 ΔΔCT: −0.420
  ZHX3 ΔΔCT: 0.027
  ZNF281 ΔΔCT: −0.465
SMARCB1 protein levels
  SMARCB1 protein levels: no effect
SU-DHL4 cells
  ΔΔCT, ADARB1: −0.516
  ΔΔCT, AFF1: −0.429
  ΔΔCT, AK2: −1.076
  ΔΔCT, AMPD3: −0.891
  ΔΔCT, ANGPTL4: −1.047
  ΔΔCT, ANXA4: −0.890
  ΔΔCT, ARID68: −0.131
  ΔΔCT, ASPH: −0.451
  ΔΔCT, ATF4: −0.279
  ΔΔCT, CEBPA: −0.301
  ΔΔCT, CREB1: −0.548
  ΔΔCT, CREB3: −0.560
  ΔΔCT, CREB3L4: −0.199
  ΔΔCT, CYB561: −0.720
  ΔΔCT, EHD3: −1.325
  ΔΔCT, FK8PS: −1.582
  ΔΔCT, GDPD1: −0.409
  ΔΔCT, GHRHR: 0.184
  ΔΔCT, GOT1: −0.402
  ΔΔCT, H6PD: 0.160
  ΔΔCT, HNRPLL: −0.286
  ΔΔCT, IL6R: −0.524
  ΔΔCT, IL10: −0.130
  ΔΔCT, KLF9: −0.821
  ΔΔCT, KLF13: −0.934
  ΔΔCT, MT2A: 0.129
  ΔΔCT, NR3C1: −0.427
  ΔΔCT, PDCD7: 0.403
  ΔΔCT, PER1: −0.786
  ΔΔCT, PER2: −1.101
  ΔΔCT, PIK3R1: −0.892
  ΔΔCT, PLEKHF1: −1.285
  ΔΔCT, POU2F1: −0.432
  ΔΔCT, RGS2: −0.372
  ΔΔCT, RHOB: 0.724
  ΔΔCT, SGK1: −0.346
  ΔΔCT, SLC10A6: −3.874
  ΔΔCT, SLC19A2: −0.995
  ΔΔCT, SLC22A5: −0.171
  ΔΔCT, SNTA1: −0.687
  ΔΔCT, SPSB1: 0.068
  ΔΔCT, STAT5B: −0.268
  ΔΔCT, TBL1XR1: −0.721
  ΔΔCT, TNFAIP3: 0.835
  ΔΔCT, TSC22D3: −2.169
  ΔΔCT, USP2: −1.681
  ΔΔCT, USPS4: −1.060
  ΔΔCT, ZFP36: −0.541
  ΔΔCT, ZHX3: −0.868
